Source: patent US20110107445A1, “Efficient Insertion of DNA Into Embryonic Stem Cells” (ITI Scotland Limited, priority 2008, published 2011)
One block for each compound: values may come before it.

Key:
CYP3A4 [1] = biological target: T1, CYP3A4 (Homo sapiens, UniProt P08684); assay: In vitro oxidation of 7-BQ by pooled human liver microsomes; type: in vitro ADME
T1 construct: tissue Gentest 452172; host or cells: pooled (male) human liver microsomes
Source text: FIG. 24. 7-BQ oxidation by liver (A) and intestinal (B) microsomes from C57BL/6J, hCYP3A4/3A7_Cyp3a KO, hCYP3A4_Cyp3a KO and Cyp3a KO mice Data generated according to CXR approved Laboratory Method Sheet Fluor-0005. Apart from bars for untreated transgenic/knock-out mice, which represent a single measurement, data are mean±SD (n=3 for C57BL/6J microsomes; n=2 for microsomes from PCN treated transgenic strains and human liver microsomes (HLM)). Activities of samples from treated hCYP3A4/3A7_Cyp3a KO and hCYP3A4_Cyp3a KO mice were compared to that from Cyp3a KO line with an unpaired t test (two tailed P values).

CYP3A4 [2] = type: in vitro ADME, mouse
Source text: FIG. 24. 7-BQ oxidation by liver (A) and intestinal (B) microsomes from C57BL/6J, hCYP3A4/3A7_Cyp3a KO, hCYP3A4_Cyp3a KO and Cyp3a KO mice Data generated according to CXR approved Laboratory Method Sheet Fluor-0005. Apart from bars for untreated transgenic/knock-out mice, which represent a single measurement, data are mean±SD (n=3 for C57BL/6J microsomes; n=2 for microsomes from PCN treated transgenic strains and human liver microsomes (HLM)). Activities of samples from treated hCYP3A4/3A7_Cyp3a KO and hCYP3A4_Cyp3a KO mice were compared to that from Cyp3a KO line with an unpaired t test (two tailed P values). 3 homozygous male mice per strain were used throughout. Two mice were administered with 5-Pregnen-3β-ol-20-one-16α-carbonitrile (PCN) (100 mg/kg/2 daily doses/IP) and one mouse was given the vehicle (corn oil). […] Wild type (WT) and Cyp3a KO animals were included as controls (n=3 for WT, pooled; n=1-2 for Cyp3a KO). Animals were sacrificed 24 hrs post final dose. Liver and duodenal microsomes were analysed for CYP3A4 expression and catalytic activity.

CYP3A4 [3] = assay: In vitro DBF oxidation by mouse liver and intestinal microsomes; type: in vitro ADME
Method: The total reaction volume was 1 mL. Fluorescein fluorescence was recorded using an F-4500 fluorescence spectrophotometer (Hitachi), excitation 485 nm and emission 538 nm. Fluorescein standard (10 μL, 25 μM) was injected into the reaction cuvette approximately 150 sec after the addition of NADPH. Slopes of the time course of the product accumulation were calculated using FL-Solution 2.0 (Hitachi).

CYP3A4 [4] = assay: Western blot of liver and intestinal microsomes for CYP3A4 protein; type: in vivo, mouse
Method: (§1) The mice received either corn oil (vehicle) or PCN 100 mg/kg, daily, for 2 days by intraperitoneal (IP) injection according to the experimental design described in Table 3. Dosing solutions were prepared at CXR Biosciences on the day of dosing by adding the vehicle (corn oil) to the requisite quantity of the PCN. The concentration of PCN was the concentration of supplied chemical, without any correction for purity. Excess dosing solution was stored at approximately 2-8° C. for possible future analysis. The volume of dosing solution was 10 mL/kg bodyweight. Approximately 24 h after the second dose, the mice were euthanized using a rising concentration of CO2. Blood was collected at termination by cardiac puncture into lithium/heparin coacted tubes for plasma preparation.
The duodenum (first 10 cm from the base of the stomach) was removed and flushed with ice cold PBS containing a protease inhibitor cocktail (Roche). The first 2 cm was but and placed into a 2 ml cryvial containing 1 ml of TRIZOL (Sigma), flash frozen immediately, and then stored at approximately −70° C. for Taqman® analysis. The remainder of the duodenum was placed in a 1 ml cryovial and flash frozen immediately, and then stored at approximately −70°.
Liver microsomes were produced by preparing subcellular fractions from fresh livers. The livers were processed as described above to homogenates and microsomes. Aliquots from liver samples were stored at approximately −70° prior to analysis.
Frozen small intestines were homogenised in SET with protease cocktail inhibitor (Roche) and PMSF (mM) using a Polytron homogeniser. The homogenates were subjected to subcellular fractionation as described above. The microsomal fractions were stored at approximately −70° prior to analysis.
Liver microsomes from C57BL/6J, hCYP3A4/3A7_Cyp3a KO, hCYP3A4_Cyp3a KO and Cyp3a KO mice were analysed by Western blotting using an antibody specific to CYP3A4 and the results are shown in FIG. 22. There was a clear protein band for CYP3A4 on the Western blot of liver and intestinal microsomes from vehicle treated hCYP3A4/3A7_Cyp3a KO mice. […]

[5] = Body and liver weights of PCN treated mice; type: in vivo, mouse; conditions: for Liver per body weight, percentage of C57BL/6J from the same treatment group / Liver per body weight, percentage of control group of the same strain / Body weight / Liver per body weight / Liver weight: PCN 100 mg/kg daily for 2 days IP; for Body weight / Liver per body weight / Liver weight: mean ± SD
Method: as §1
The body weight of each mouse was recorded at the start of the study and immediately prior to termination. Bodyweights were recorded electronically or manually and records of these weights were stored in the study file.
In order to weigh the liver, the gall bladder was removed, and then the liver was removed and weighed. Two samples of liver (approximately 5 mm^3) were immediately flash frozen in a cryovial in liquid nitrogen then stored at approximately −70° C. for RNA analysis. The remaining liver was weighed and immediately used for subcellular fractionation to homogenates and microsomes.

CYP3A7 mRNA = conditions: mouse, in vivo
Method: 3 homozygous male mice per strain were used throughout. Two mice were administered with 5-Pregnen-3β-ol-20-one-16α-carbonitrile (PCN) (100 mg/kg/2 daily doses/IP) and one mouse was given the vehicle (corn oil). […] Wild type (WT) and Cyp3a KO animals were included as controls (n=3 for WT, pooled; n=1-2 for Cyp3a KO). Animals were sacrificed 24 hrs post final dose. Liver and duodenal microsomes were analysed for CYP3A4 expression and catalytic activity.
as §1, with “Approximately 24 h after the second dose, the mice were euthanized using a rising concentration of CO2. Blood was collected at termination by cardiac puncture into lithium/heparin coacted tubes for plasma preparation.” left out
For each target gene a reaction with the lowest dCt value was identified and that dCt value was subtracted from all other dCt, giving so-called ddCt (ddCt of the sample with the lowest dCt (endogenous reference) equals 0). Finally, the normalised relative amount of target gene (RQ) was calculated using the following formula: RQ=(2̂(−ddCt))*100 as shown in Table 9.

[6] = Plasma clinical chemistry of PCN treated mice; type: in vivo, mouse; conditions: PCN treated hCYP3A4_Cyp3a KO mice compared to treated C57BL/6J mice
Method: as §1
Plasma samples were produced by removing red blood cells by centrifugation (2,000-3,000 rpm for 10 min at 8-10° C.). The supernatant (plasma) was stored on ice prior to clinical chemistry analysis. The pellet was discarded. Plasma samples from all animals were analysed for triglycerides, alanine aminotransferase, alkaline phosphatase, aspartate aminotransferase, albumin, cholesterol, bilirubin (total and direct), high and low density lipoproteins using the COBAS Integra 400+ (Roche), and the results are shown in FIGS. 19-21. […]

T1 sequence (P08684 whole entry): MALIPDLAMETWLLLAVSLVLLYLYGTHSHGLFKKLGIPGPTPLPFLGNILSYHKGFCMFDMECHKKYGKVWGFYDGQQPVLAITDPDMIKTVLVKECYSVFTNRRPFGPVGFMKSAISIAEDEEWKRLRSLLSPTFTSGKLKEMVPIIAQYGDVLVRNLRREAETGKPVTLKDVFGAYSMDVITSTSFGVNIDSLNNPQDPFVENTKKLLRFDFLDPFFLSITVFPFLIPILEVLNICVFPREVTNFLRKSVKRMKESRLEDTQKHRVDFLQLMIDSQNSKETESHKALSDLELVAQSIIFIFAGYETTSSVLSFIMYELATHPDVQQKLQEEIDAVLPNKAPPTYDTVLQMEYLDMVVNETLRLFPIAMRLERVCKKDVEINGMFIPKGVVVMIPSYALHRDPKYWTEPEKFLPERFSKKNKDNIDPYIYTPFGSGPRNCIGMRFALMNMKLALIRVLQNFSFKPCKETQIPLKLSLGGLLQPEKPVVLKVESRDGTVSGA

7-BQ oxidation reaction rate (CYP3A4 [1]): low reaction rate
7-BQ oxidation (CYP3A4 [2]): marked decrease
7-BQ oxidation, recovery of activity (CYP3A4 [2]): small and not statistically significant
SMILES: c1ccc(COc2ccc3cccnc3c2)cc1 [7-BQ, 7-benzyloxyquinoline]

DBF oxidation reaction rate (CYP3A4 [3]; hCYP3A4/3A7_Cyp3a KO microsomes compared to hCYP3A4_Cyp3a KO): higher
DBF oxidation activity (CYP3A4 [3]; liver and intestinal samples from untreated humanised mice compared to Cyp3a KO): little increase
DBF oxidation activity, difference humanised vs Cyp3a KO (CYP3A4 [3]; samples from the PCN treated groups): significantly more pronounced
SMILES: O=C(OCc1ccccc1)c1ccccc1-c1c2ccc(=O)cc-2oc2cc(OCc3ccccc3)ccc12 [DBF]

hepatic and intestinal CYP3A4 expression (CYP3A4 [4]; both humanised lines, treatment with PCN): strong induction
intestinal CYP3A4 protein upregulation (Western blot) (CYP3A4 [4]; intestinal microsomes, humanised mice, compared with liver upregulation): less pronounced
liver CYP3A4 protein (Western blot) (CYP3A4 [4]; liver microsomes, humanised mice, PCN 100 mg/kg/2 days/IP): strong upregulation
7-BQ oxidation activity in response to PCN (CYP3A4 [2]): no increase in activity
Liver weight ([5]; C57BL/6J mice, n=3): 1.10 ± 0.06 g
Liver weight ([5]; Cyp3a KO mice, n=2): 1.22 ± 0.15 g
Liver weight ([5]; hCYP3A4/3A7_Cyp3a KO mice, n=2): 1.06 ± 0.27 g
Liver weight ([5]; hCYP3A4_Cyp3a KO mice, n=2): 1.00 ± 0.09 g
CYP3A7 mRNA (Q-PCR) (CYP3A7 mRNA): possible induction of CYP3A7
plasma level of cholesterol, low and high density lipoproteins, alanine transferase and alkaline phosphatase [6]: statistically significant increases
SMILES: CC(=O)[C@H]1[C@H](C#N)C[C@H]2[C@@H]3CC=C4C[C@@H](O)CC[C@]4(C)[C@H]3CC[C@@]21C [PCN, 5-Pregnen-3β-ol-20-one-16α-carbonitrile]
Liver per body weight, percentage of C57BL/6J from the same treatment group ([5]; C57BL/6J mice): 100 ± 2.1 %
Liver per body weight, percentage of control group of the same strain ([5]; C57BL/6J mice): 131 ± 2.7 %
Body weight ([5]; C57BL/6J mice, n=3): 19.30 ± 0.82 g
Liver per body weight ([5]; C57BL/6J mice, n=3): 5.70 ± 0.12 %
liver/body weight ratio ([5]; C57BL/6J mice, PCN administration vs control): significantly (P<0.001) increased
Liver per body weight, percentage of C57BL/6J from the same treatment group ([5]; Cyp3a KO mice): 89 ± 4.4 %
Liver per body weight, percentage of control group of the same strain ([5]; Cyp3a KO mice): 121 ± 6.0 %
Body weight ([5]; Cyp3a KO mice, n=2): 24.05 ± 1.77 g
Liver per body weight ([5]; Cyp3a KO mice, n=2): 5.06 ± 0.25 %
liver/body weight ratio ([5]; all treated transgenic mice vs treated wild type, significant (P<0.05) only in Cyp3a KO group): decreased liver/body weight ratio compared to the treated wild type
Liver per body weight, percentage of C57BL/6J from the same treatment group ([5]; hCYP3A4/3A7_Cyp3a KO mice): 97 ± 21.1 %
Liver per body weight, percentage of control group of the same strain ([5]; hCYP3A4/3A7_Cyp3a KO mice): 120 ± 26.1 %
Body weight ([5]; hCYP3A4/3A7_Cyp3a KO mice, n=2): 19.15 ± 0.64 g
Liver per body weight ([5]; hCYP3A4/3A7_Cyp3a KO mice, n=2): 5.53 ± 1.20%
Liver per body weight, percentage of C57BL/6J from the same treatment group ([5]; hCYP3A4_Cyp3a KO mice): 93 ± 4.6 %
Liver per body weight, percentage of control group of the same strain ([5]; hCYP3A4_Cyp3a KO mice): 113 ± 5.6 %
Body weight ([5]; hCYP3A4_Cyp3a KO mice, n=2): 19.00 ± 0.71 g
Liver per body weight ([5]; hCYP3A4_Cyp3a KO mice, n=2): 5.27 ± 0.26%
